Experimental data published in US20240277708A1, “Use of [1,2,4] Triazolo [4,3-B] Pyridazine Derivative For Preventing and Treating Senescence and Senescence-Related Diseases” (The Eighth Affiliated Hospital, Sun Yat-Sen University, priority 2023, published 2024).

Experiments:
[1] = stated for a known small molecule drug, no test described; cited from earlier work
MRC5 cells = assay: VP16-induced cellular senescence, SA-β-gal staining, MRC5 cells; format: cell-based, Human; settings: C1632 120 μM, VP16 40 μM for 4-7 days, FIG. 1A, 1C
Procedure: (§1) MRC5 and BJ cells were cultured in DMEM low-glucose medium containing 10% FBS. The cells were passaged or plated at a ratio of 1:3.0.5×10^5 cells were plated in 12-well plates and in the next day treated with VP16 at a final concentration of 40 μM for 4-7 days to induce cellular senescence. A cellular senescence model was constructed. While inducing cellular senescence, C1632 with a final concentration of 120 μM is added. The effect of C1632 on the senescence of BJ and MRC5 cells was detected by SA-β-gal staining, and the effect of C1632 on cellular senescence was studied.

[2] = test system: C57BL/c mice, VD3-induced vascular calcification; assay: VD3-induced aortic vascular calcification mouse model, alizarin red staining; format: in vivo; settings: VD3 500 IU/g/day for 2 days, C1632 68 mg/kg twice a week, after 6 days; FIG. 15
Procedure: C57BL/c mice were intraperitoneally injected with VD3 at a dose of 500 IU/g/day for 2 consecutive days, and then divided into: (1) Saline group; (3) C1632 group, 10 mice in each group. C1632 was administered twice a week, and CKD mice were treated with C1632 at a dose of 68 mg/kg of body weight each time. After 6 days, the mice were sacrificed, and the aortic blood vessels were dissected for alizarin red staining and hydroxyapatite staining.

senescent TC-1 cells = assay: T cell killing assay (LDH release) on bleomycin-induced senescent TC-1 cells with immune cells from treated IPF mice; format: cell-based, mouse; settings: ratio 1:50, 4 h
Procedure: 1, The senescence of TC-1 cells was induced with bleomycin, and the senescence of TC-1 cells was reflected through SA-β-Gal staining (FIG. 4A).
2, T cell killing assay: Bleomycin-induced senescent TC1 cells were plated at 10, 000/well in 96-well plates. The cell culture supernatant was discarded the next day, and then, PBMCS, CD3^+ T cells, and CD8^+ T cells isolated from normal mice, saline treated idiopathic pulmonary fibrosis (IPF) mice and C1632-treated IPF mice were add at a ratio of 1:50. After incubation at 37° C. for 4 h, the supematantwas obtained after centrifugation. LDH enzyme was released from the killed senescent cells, and the killing effect of immune cells on senescent cells was detected by LDH kit. Bleomycin at a dose of 2 mg/kg was sprayed into the lungs of mice to construct IPF mouse model, each group of the above experiments had at least 6 mice.
Isolation and culture of CD8^+ T cells: Mouse spleens were ground under sterile conditions and filtered through a 200-mesh sieve. The filtered cells were sorted by CD8^+ T cell isolation kit (biolegend). The sorted T cells were cultured in PRMI1640 medium containing 10% FBS, 5 μg/mL anti-mouse CD28 antibody (biolegend), and 10 ng/mL IL-2 in the plates coated overnight with 5 μg/mL CD3 antibody (biolegend) until use.

[3] = test system: C57BL/6 mice, CCl4 liver fibrosis model; assay: CCl4-induced liver fibrosis mouse model, collagen staining of liver sections; format: in vivo; settings: 17 mg/kg C1632 after each CCl4 injection
Procedure: C57BL/6 mice were divided into normal control group, CCl4 group and CCl4+C1632 group, with 7 mice in each group. The mice in the CCl4+C1632 group were injected with 17 mg/kg C1632 for treatment after each injection of CCl4. At the end of the experiment, the mice were sacrificed, and the obtained livers were fixed with 4% paraformaldehyde, dehydrated, embedded and sliced.
1. The collagen fibers in the tissue were stained blue through Masson staining, and the muscle fibers and cytoplasm were stained red through Masson staining. The sections were routinely deparaffinized to water and stained with Weigert's hematoxylin for 5 to 10 minutes. The sections were differentiated with 1% hydrochloric alcohol differentiation solution and washed with water. The sections was returned blue by using Masson bluing solution and washed with water for 1 min. The sections were stained with Ponceau fuchsin staining solution for 5 to 10 min, soaked in 1% glacial acetic acid for a moment, then washed with the phosphomolybdic acid solution for 1 to 2 min. The sections were stained in the aniline blue staining solution for 1 to 2 min after washed with 1% glacial acetic acid for 1 min. The sections were rinsed with 1% glacial acetic acid in three consecutive cylinders for about 8 s, then successively dehydrated by three consecutive cylinders of absolute ethanol for about 5 s, 10 s, and 30 s, and dehydrated by two cylinders of n-butyl alcohol for 30 s and 2 min in turn, and finally permeabilized by two cylinders of xylene for 5 min each time, and sealed with neutral gum.
2. To further verify the effect of C1632 on liver fibrosis, the above tissue sections were subjected to Van Gieson (VG) staining, which was a mature connective tissue staining method to distinguish collagen fibers from muscle fibers. Paraffin sections were deparaffinized into water, and then placed into VG staining solution prepared with acid fuchsin and picric acid, stained for 1 min, quickly washed with water, and quickly dehydrated in three cylinders of absolute ethanol. The sections were placed into xylene for permeabilizing, then sealed with neutral gum and photographed under a microscope.
The sections deparaffinized to water were oxidized with Gordon-Sweets oxidizer for 5 min. After washing with water, the sections were bleached with oxalic acid solution for 1 to 2 min. After washing with distilled water, the sections were mordanted with ferric ammonium sulfate solution for 5 min, then rinsed briefly with water. Gordon-Sweets silver ammonia solution was dropwise added for staining for 3 min. The sections were briefly washed with distilled water, reduced with Gordon-Sweets reducing agent for 1 min and rinsed under running water for 10 min. The nucleus was stained with nuclear fast red staining solution for 5-10 min. […]

BJ cells = assay: VP16-induced cellular senescence, SA-β-gal staining, BJ cells; format: cell-based, Human; settings: C1632 120 μM, VP16 40 μM for 4-7 days, FIG. 1A, 1B
Procedure: as §1

**Q.** Which Solubility [1] does the source give for `CC(=O)N(C)c1cccc(-c2ccc3nnc(C)n3n2)c1` [C1632] here?
**A.** The Solubility was “can be dissolved in water, ethanol or DMSO”.

**Q.** What about the Thermal stability [1] of the same compound?
**A.** Its Thermal stability is “good thermal stability”.

**Q.** And the “VP16-induced senescence (β-gal-positive cell rate) in MRC5 cells” value (MRC5 cells)?
**A.** The value was “inhibits VP16-induced senescence”.

**Q.** And the “Aortic vascular calcification, alizarin red staining” value [2]?
**A.** Its value is “significantly inhibits the progression of aortic vascular calcification”.

**Q.** What about the “Killing activity of CD3+ T cells against senescent TC-1 cells (LDH release)” value (senescent TC-1 cells; CD3+ T cells from C1632-treated IPF mice vs saline-treated IPF mice, FIG. 4C) of the same compound?
**A.** The value was “significantly enhanced killing activity”.

**Q.** What about the “Killing activity of CD8+ T cells against senescent cells (LDH release)” value (senescent TC-1 cells; CD8+ T cells from C1632-treated IPF mice vs normal mice and saline-treated IPF mice, FIG. 4D) of the same compound?
**A.** The value was “significantly higher”.

**Q.** And the “Killing activity of PBMC against senescent TC-1 cells (LDH release)” value (senescent TC-1 cells; PBMC from C1632-treated IPF mice vs saline-treated IPF mice, FIG. 4B)?
**A.** The value was “significantly enhanced killing activity”.

**Q.** What about the “Collagen fibers in liver tissue, Masson staining” value ([3]; twice a week for 6 weeks, FIG. 5) of the same compound?
**A.** The value was “can inhibit the expression of collagen fibers induced by CCl4”.

**Q.** And the “Collagen fiber levels in liver tissue, Van Gieson (VG) staining” value ([3]; FIG. 6)?
**A.** The value was “significantly reduces collagen fiber levels”.

**Q.** And the “Reticular fibers in liver tissue, reticular fiber staining” value ([3]; FIG. 7)?
**A.** Its value is “can inhibit the expression of reticular fibers induced by CCl4”.

**Q.** And the “Type I collagen production in liver, Sirius red staining” value ([3]; polarized light, FIG. 8)?
**A.** Its value is “can significantly inhibit the production of type I collagen”.

**Q.** And the “VP16-induced senescence (β-gal-positive cell rate) in BJ cells” value (BJ cells)?
**A.** Its value is “inhibits VP16-induced senescence”.
